US20260240163A1, “HERBICIDAL COMBINATIONS AND A METHOD FOR CONTROLLING UNDESIRED VEGETATION” (UPL Mauritius Limited, priority 2022, published 2026)

Test system: Euphorbia heterophylla
Test: Post-emergence herbicidal efficacy trials; expected efficacy by Colby method
Format: in vivo
Settings: for Observed efficacy (%) of L-glufosinate ammonium (150 g a.i./ha): Table 11
Description: Methodology: Trials were conducted to evaluate the efficacy of the combinations comprising L-glufosinate ammonium and the additional herbicides on Euphorbia genus weeds.
The soil used was sandy clay loam-sand: 68.0%; silt: 8.0%; clay: 24.0%.
All treatments were in 4 replications per treatment with a spray volume of about 150 L/ha.
Efficacy Evaluation: The expected efficacy of the combination comprising L-glufosinate ammonium and additional herbicides was calculated using the well-established Colby method.
In the Colby method, the expected (or predicted) response of a combination of herbicides is calculated by taking the product of the observed response for each individual component of the combination when applied alone, divided by 100, and subtracting this value from the sum of the observed response for each component when applied alone. An unexpected enhancement in efficacy of the combination is then determined by comparing the observed response of the combination to the expected (or predicted) response as calculated from the observed response of each individual component alone. If the observed response of the combination is greater than the expected (or predicted) response, or stated conversely, if the difference between the observed and expected response is greater than zero, then the combination is said to be synergistic or unexpectedly effective (Colby, S. R., Weeds, 1967 (15), p. 20-22). The Colby method requires only a single dose of each herbicide applied alone and the mixture of both doses. The formula used to calculate the expected efficacy (EE) which was compared with the observed efficacy (OE) to determine the efficacy of the present disclosure is explained hereinbelow:
The expected efficacy for a combination of two active ingredients is as follows:
wherein, • A=Observed efficacy of active ingredient A at the same concentration as used in the mixture. • B=Observed efficacy of the active ingredient B at the same concentration as used in the mixture.

Compound: C[N+](C)(C)CCO.O=C([O-])COc1ccc(Cl)cc1Cl [2,4-D choline, 2,4-dichlorophenoxyacetic acid (2,4-D) choline]
- Observed efficacy (%) of 2,4-D choline (228 g a.i./ha) (14 DAA): 30%
- Observed efficacy (%) of 2,4-D choline (228 g a.i./ha) (21 DAA): 30%

Compound: COc1c(Cl)ccc(Cl)c1C(=O)O [Dicamba]
- Observed efficacy (%) of Dicamba (228 g a.i./ha) (7 DAA): 45%
- Observed efficacy (%) of Dicamba (228 g a.i./ha) (14 DAA): 40%

Compound: COc1c(Cl)ccc(-c2nc(C(=O)OCc3ccccc3)c(Cl)c(N)c2F)c1F [Florpyrauxifen-benzyl]
- Observed efficacy (%) of Florpyrauxifen-benzyl (15 g a.i./ha) (7 DAA): 65%
- Observed efficacy (%) of Florpyrauxifen-benzyl (15 g a.i./ha) (14 DAA): 90%

Compound: CP(=O)(O)CC[C@H](N)C(=O)O.N [L-glufosinate ammonium]
- Observed efficacy (%) of L-glufosinate ammonium (Glufosinate-P-ammonium) (150 g a.i./ha) (7 DAA, Table 6): 95%
- Observed efficacy (%) of L-glufosinate ammonium (Glufosinate-P-ammonium) (150 g a.i./ha) (7 DAA, Table 7): 95%
- Observed efficacy (%) of L-glufosinate ammonium (Glufosinate-P-ammonium) (150 g a.i./ha) (7 DAA, Table 8): 95%
- Observed efficacy (%) of L-glufosinate ammonium (Glufosinate-P-ammonium) (150 g a.i./ha) (7 DAA, Table 9): 95%
- Observed efficacy (%) of L-glufosinate ammonium (Glufosinate-P-ammonium) (150 g a.i./ha) (7 DAA, Table 10): 95%
- Observed efficacy (%) of L-glufosinate ammonium (Glufosinate-P-ammonium) (150 g a.i./ha) (14 DAA, Table 6): 98%
- Observed efficacy (%) of L-glufosinate ammonium (Glufosinate-P-ammonium) (150 g a.i./ha) (14 DAA, Table 7): 98%
- Observed efficacy (%) of L-glufosinate ammonium (Glufosinate-P-ammonium) (150 g a.i./ha) (14 DAA, Table 9): 93.5%
- Observed efficacy (%) of L-glufosinate ammonium (Glufosinate-P-ammonium) (150 g a.i./ha) (14 DAA, Table 10): 93.5%
- Observed efficacy (%) of L-glufosinate ammonium (150 g a.i./ha) (14 DAA): 98%
- Observed efficacy (%) of L-glufosinate ammonium (Glufosinate-P-ammonium) (150 g a.i./ha) (21 DAA, Table 9): 88.8%
- Observed efficacy (%) of L-glufosinate ammonium (Glufosinate-P-ammonium) (150 g a.i./ha) (21 DAA, Table 10): 88.8%
- Observed efficacy (%) of L-glufosinate ammonium (150 g a.i./ha) (21 DAA): 98%
- Observed efficacy (%) of L-glufosinate ammonium (Glufosinate-P-ammonium) (150 g a.i./ha) (28 DAA, Table 9): 93.1%
- Observed efficacy (%) of L-glufosinate ammonium (Glufosinate-P-ammonium) (150 g a.i./ha) (28 DAA, Table 10): 93.1%

Compound: CSc1nnc(C(C)(C)C)c(=O)n1N [Metribuzin]
- Observed efficacy (%) of Metribuzin (360 g a.i./ha) (7 DAA): 41.9%
- Observed efficacy (%) of Metribuzin (360 g a.i./ha) (14 DAA): 38.1%
- Observed efficacy (%) of Metribuzin (360 g a.i./ha) (21 DAA): 29.4%
- Observed efficacy (%) of Metribuzin (360 g a.i./ha) (28 DAA): 12.5%

Compound: CCN(CC)C(=O)C(C)Oc1cccc2ccccc12 (stereo not drawn) [Napropamide]
- Observed efficacy (%) of Napropamide (675 g a.i./ha) (7 DAA): 20%
- Observed efficacy (%) of Napropamide (675 g a.i./ha) (14 DAA): 10%
- Observed efficacy (%) of Napropamide (675 g a.i./ha) (21 DAA): 0%
- Observed efficacy (%) of Napropamide (675 g a.i./ha) (28 DAA): 0%

Compound: CCOc1cc(Oc2ccc(C(F)(F)F)cc2Cl)ccc1[N+](=O)[O-] [Oxyfluorfen]
- Observed efficacy (%) of Oxyfluorfen (430 g a.i./ha) (430 g a.i./ha, 7 DAA): 75%
